Test results taken from patent US12528819B2 (priority 2016, dated 2026).
Entries after “also recorded” stand apart in the source; their conditions may differ. Like-named read-outs stand apart in the source and are kept apart here.

What was measured:
aged-impaired (AI) rats = test: Radial Arm Maze (RAM) behavioral task, spatial memory retention; assay type: in vivo, rat; details: two-hour delay
Description: The effects of methyl 3,5-diphenylpyridazine-4-carboxylate on the in vivo spatial memory retention of aged-impaired (AI) rats were assessed in a Radial Arm Maze (RAM) behavioral task using vehicle control and four different dosage levels of methyl 3,5-diphenylpyridazine-4-carboxylate (0.1 mg/kg, 0.3 mg/kg, 1 mg/kg and 3 mg/kg, ip). RAM behavioral tasks were performed on eight AI rats. All five treatment conditions (vehicle and four dosage levels) were tested on all eight rats.
The RAM apparatus used consisted of eight equidistantly-spaced arms. An elevated maze arm (7 cm width×75 cm length) projected from each facet of an octagonal center platform (30 cm diameter, 51.5 cm height). Clear side walls on the arms were 10 cm high and were angled at 65° to form a trough. A food well (4 cm diameter, 2 cm deep) was located at the distal end of each arm. Froot Loops™ (Kellogg Company) were used as rewards. Blocks constructed of Plexiglas™ (30 cm height×12 cm width) could be positioned to prevent entry to any arm. Numerous extra maze cues surrounding the apparatus were also provided.
The AI rats were initially subjected to a pre-training test (Chappell et al. Neuropharmacology 37: 481-487, 1998). The pre-training test consisted of a habituation phase (4 days), a training phase on the standard win-shift task (18 days) and another training phase (14 days) in which a brief delay was imposed between presentation of a subset of arms designated by the experimenter (e.g., 5 arms available and 3 arms blocked) and completion of the eight-arm win-shift task (i.e., with all eight arms available).
In the habituation phase, rats were familiarized to the maze for an 8-minute session on four consecutive days. In each of these sessions, food rewards were scattered on the RAM, initially on the center platform and arms and then progressively confined to the arms. After this habituation phase, a standard training protocol was used, in which a food pellet was located at the end of each arm. Rats received one trial each day for 18 days. Each daily trial terminated when all eight food pellets had been obtained or when either 16 choices were made or 15 minutes had elapsed. After completion of this training phase, a second training phase was carried out in which the memory demand was increased by imposing a brief delay during the trial. At the beginning of each trial, three arms of the eight-arm maze were blocked. Rats were allowed to obtain food on the five arms to which access was permitted during this initial “information phase” of the trial. Rats were then removed from the maze for 60 seconds, during which time the barriers on the maze were removed, thus allowing access to all eight arms. […]

GABAA α5 receptor = target: T1, GABAA α5 receptor (Rattus norvegicus, UniProt P18508+P19969); test: GABAA α5 receptor occupancy with Ro 15-4513 tracer (hippocampus vs cerebellum); assay type: in vivo; details: for % RO (L-655,708 Method): young Long Evans rats
T1 construct: from tissue; host or cells: rat brain in vivo; hippocampus versus cerebellum
Excerpt: (§1) Food and water were available ad libitum.

[1] = assay type: in vivo, rat; details: for Hippocampus exposure / Plasma exposure / Young Hippocampus exposure / Young Plasma exposure: young Long Evans rats; for Aged Hippocampus exposure / Aged Plasma exposure: aged Long Evans rats
Description: as §1
For plasma exposures, blood samples were centrifuged at 14000 rpm for 16 minutes. After centrifuging, 50 ul of supernatant (plasma) from each sample was added to 200 μl of acetonitrile plus 0.1% formic acid. […] Samples were sonicated for 5 minutes in an ultrasonic water bath, followed by centrifugation for 30 minutes, at 16000 RPM. 100 ul of supernatant was removed from each sample vial and placed in a new glass auto sample vial, followed by the addition of 300 μl of sterile water (pH 6.5).
Additional studies were conducted in aged Long-Evans rats in order to determine the exposures at the behaviorally relevant doses in the cognition studies. Exposure in young Long-Evans rats was also determined to bridge with the receptor occupancy studies that were conducted in young Long-Evans rats. Exposures in young and aged Long-Evans rats were relatively similar (Table 4, FIG. 4).

α5-containing GABAA R = target: T2, α5-containing GABAA R (Homo sapiens, UniProt P18507+P31644); details: EC20; cited from earlier work
T2 sequence (P31644 32-462): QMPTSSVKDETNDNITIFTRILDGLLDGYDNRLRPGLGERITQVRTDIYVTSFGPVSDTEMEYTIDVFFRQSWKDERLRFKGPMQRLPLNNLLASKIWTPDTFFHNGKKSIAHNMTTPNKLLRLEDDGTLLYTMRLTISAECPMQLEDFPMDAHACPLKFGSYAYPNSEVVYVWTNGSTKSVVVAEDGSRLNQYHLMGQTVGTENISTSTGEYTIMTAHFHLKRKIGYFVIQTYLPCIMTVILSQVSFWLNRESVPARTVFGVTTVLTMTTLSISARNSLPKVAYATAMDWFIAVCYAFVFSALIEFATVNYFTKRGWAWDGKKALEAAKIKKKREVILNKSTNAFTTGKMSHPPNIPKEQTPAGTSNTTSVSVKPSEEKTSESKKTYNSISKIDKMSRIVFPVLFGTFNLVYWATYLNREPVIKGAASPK
T2 sequence (P28472 26-473 partner): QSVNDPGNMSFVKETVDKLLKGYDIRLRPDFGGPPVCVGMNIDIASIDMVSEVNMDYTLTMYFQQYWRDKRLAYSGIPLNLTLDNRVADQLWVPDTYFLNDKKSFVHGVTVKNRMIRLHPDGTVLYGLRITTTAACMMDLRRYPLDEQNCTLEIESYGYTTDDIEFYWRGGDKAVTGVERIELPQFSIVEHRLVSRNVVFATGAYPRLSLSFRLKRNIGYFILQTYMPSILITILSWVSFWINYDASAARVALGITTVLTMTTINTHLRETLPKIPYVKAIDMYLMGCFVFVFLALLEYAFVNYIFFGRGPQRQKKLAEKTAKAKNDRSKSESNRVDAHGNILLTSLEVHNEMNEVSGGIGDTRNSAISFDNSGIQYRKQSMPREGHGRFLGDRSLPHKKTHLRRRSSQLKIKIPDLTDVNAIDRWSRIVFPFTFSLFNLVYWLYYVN
T2 sequence (P18507 40-467 limits assumed): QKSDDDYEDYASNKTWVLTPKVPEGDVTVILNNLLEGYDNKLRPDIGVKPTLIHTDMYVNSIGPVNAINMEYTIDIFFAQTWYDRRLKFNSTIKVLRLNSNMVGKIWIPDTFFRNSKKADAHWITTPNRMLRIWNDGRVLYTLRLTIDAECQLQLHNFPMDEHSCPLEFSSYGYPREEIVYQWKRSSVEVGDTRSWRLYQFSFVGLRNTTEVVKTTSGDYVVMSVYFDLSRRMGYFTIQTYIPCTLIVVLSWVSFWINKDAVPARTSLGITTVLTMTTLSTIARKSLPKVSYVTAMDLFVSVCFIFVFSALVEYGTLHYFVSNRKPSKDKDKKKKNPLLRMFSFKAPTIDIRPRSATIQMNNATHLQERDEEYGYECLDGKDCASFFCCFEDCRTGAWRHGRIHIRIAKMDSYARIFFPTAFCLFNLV

T1 sequence (P19969 32-464 limits assumed): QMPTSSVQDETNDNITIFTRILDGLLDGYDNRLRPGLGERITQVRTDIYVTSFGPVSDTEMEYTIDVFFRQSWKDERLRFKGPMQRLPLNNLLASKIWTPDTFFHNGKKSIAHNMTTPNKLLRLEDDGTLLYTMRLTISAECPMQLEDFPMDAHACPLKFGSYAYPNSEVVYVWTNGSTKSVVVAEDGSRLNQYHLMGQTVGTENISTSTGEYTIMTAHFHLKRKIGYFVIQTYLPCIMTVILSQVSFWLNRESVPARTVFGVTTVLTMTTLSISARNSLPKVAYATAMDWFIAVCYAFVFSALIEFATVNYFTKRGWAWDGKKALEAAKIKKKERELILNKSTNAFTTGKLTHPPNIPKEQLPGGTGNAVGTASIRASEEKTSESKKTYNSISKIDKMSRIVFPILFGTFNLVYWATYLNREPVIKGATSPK
T1 sequence (P18508 39-466): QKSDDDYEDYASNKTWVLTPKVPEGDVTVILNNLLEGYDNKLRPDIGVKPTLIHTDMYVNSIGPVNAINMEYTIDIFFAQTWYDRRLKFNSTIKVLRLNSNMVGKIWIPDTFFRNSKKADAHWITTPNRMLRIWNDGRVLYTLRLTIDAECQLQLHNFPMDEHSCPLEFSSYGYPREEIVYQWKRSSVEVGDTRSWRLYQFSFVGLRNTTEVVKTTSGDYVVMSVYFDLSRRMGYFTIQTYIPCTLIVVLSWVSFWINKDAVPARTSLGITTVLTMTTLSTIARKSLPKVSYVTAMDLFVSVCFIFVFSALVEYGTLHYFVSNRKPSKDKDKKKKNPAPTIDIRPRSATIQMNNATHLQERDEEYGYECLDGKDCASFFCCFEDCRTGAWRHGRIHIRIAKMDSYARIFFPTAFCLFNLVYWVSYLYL

SMILES: COC(=O)c1c(-c2ccccc2)cnnc1-c1ccccc1 [methyl 3,5-diphenylpyridazine-4-carboxylate]
- average no. of errors ± SEM, retention test (aged-impaired (AI) rats; 3 mg/kg ip): 1.31±0.40
- memory performance relative to vehicle control (aged-impaired (AI) rats; 3 mg/kg, t(7)=4.233, p=0.004): significantly improved memory performance
- % RO (L-655,708 Method) (GABAA α5 receptor; 0.01 mg/kg i.v.): 19.2%
- % RO (L-655,708 Method) (GABAA α5 receptor; 0.1 mg/kg i.v.): 16.4%
- % RO (L-655,708 Method) (GABAA α5 receptor; 1 mg/kg i.v.): 38.5%
- effect on Ro 15-4513 binding in hippocampus (GABAA α5 receptor; 0.01-10 mg/kg, i.v.): dose-dependently reduced; also recorded: blocked
- effect on Ro 15-4513 levels (binding) in cerebellum (GABAA α5 receptor; 0.01-10 mg/kg, i.v.): without affecting; also recorded: did not affect
- GABAA α5 receptors occupied (GABAA α5 receptor; at exposures behaviorally active in aged-impaired rats (FIG. 4)): about 32%
- receptor occupancy at 10 mg/kg (GABAA α5 receptor; rat, iv, 10 mg/kg): > 90%
- ED50 (GABAA α5 receptor; rat, iv, ratio method): 1.8 mg/kg
- Hippocampus exposure ([1]; 0.01 mg/kg i.v.): BQL
- Plasma exposure ([1]; 0.01 mg/kg i.v.): BQL
- Plasma exposure ([1]; 0.1 mg/kg i.v.): BQL
- Hippocampus exposure ([1]; 1 mg/kg i.v.): 180.0 ng/g
- Aged Hippocampus exposure ([1]; 1 mg/kg ip): 38.8 ng/g
- Aged Plasma exposure ([1]; 1 mg/kg ip): 45.2 ng/mL
- Young Hippocampus exposure ([1]; 1 mg/kg ip): 25.9 ng/g
- Young Plasma exposure ([1]; 1 mg/kg ip): 20.0 ng/mL
- Aged Hippocampus exposure ([1]; 3 mg/kg ip): 177.5 ng/g
- Aged Plasma exposure ([1]; 3 mg/kg ip): 196 ng/mL
- Young Hippocampus exposure ([1]; 3 mg/kg ip): 129.1 ng/g
- Young Plasma exposure ([1]; 3 mg/kg ip): 132.9 ng/mL
- brain/plasma ratios ([1]; Long Evans, rat, in vivo): > 1
- increase in hippocampal exposure ([1]; dose from 0.1 to 1 mg/kg, i.v.): 12 fold
- increase in hippocampal exposure ([1]; dose from 1 to 10 mg/kg, i.v.): ~5 fold
- increase in plasma exposure ([1]; dose from 1 to 10 mg/kg, i.v.): 12 fold
- α5 in vitro efficacy (α5-containing GABAA R): +27
